Common to all, as to experiment: relative viability (nuclei count vs DMSO), 5 days (fraction); higher = more cells survive
Compound in the assay “Tivantinib + Dasatinib”: O=C1NC(=O)[C@@H](c2cn3c4c(cccc24)CCC3)[C@@H]1c1c[nH]c2ccccc12 [Tivantinib] + Cc1nc(Nc2ncc(C(=O)Nc3c(C)cccc3Cl)s2)cc(N2CCN(CCO)CC2)n1 [Dasatinib] (partner 0.075 µM)
In a few lines:
(§1)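 Relative viability was taken as the ratio of nuclei in treated wells to nuclei in vehicle wells. Lung cancer cell lines in 1536-well plates received compounds by pin tool one day after seeding, either one drug alone or a fixed anchor-drug dose plus five library-drug doses (not always all listed) in √10 steps. Nuclei were counted on 4× images after 5 days of treatment, and values are medians of duplicate plates.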

Compound in the assay “Crenolanib + Bortezomib”: CC1(COc2ccc3c(c2)ncn3-c2ccc3cccc(N4CCC(N)CC4)c3n2)COC1 [Crenolanib] + CC(C)C[C@H](NC(=O)[C@H](Cc1ccccc1)NC(=O)c1cnccn1)B(O)O [Bortezomib] (partner 0.002 µM)
The procedure, abridged: as §1

Compound in the assay “Crenolanib + Olaparib”: CC1(COc2ccc3c(c2)ncn3-c2ccc3cccc(N4CCC(N)CC4)c3n2)COC1 [Crenolanib] + O=C(c1cc(Cc2n[nH]c(=O)c3ccccc23)ccc1F)N1CCN(C(=O)C2CC2)CC1 [Olaparib] (partner 8 µM)
The procedure, abridged: as §1

Compound in the assay “Crenolanib + Pictilisib”: CC1(COc2ccc3c(c2)ncn3-c2ccc3cccc(N4CCC(N)CC4)c3n2)COC1 [Crenolanib] + CS(=O)(=O)N1CCN(Cc2cc3nc(-c4cccc5[nH]ncc45)nc(N4CCOCC4)c3s2)CC1 [Pictilisib] (partner 1 µM)
The procedure, abridged: as §1

Relative viability data for 6 cell lines are collected here from the supplement of paper PMC10307832.

Consider PC-3 [JPC-3], for which the relative viability in the assay with Tivantinib + Dasatinib (first compound 0.01 µM) was found to be 0.962; with Tivantinib + Dasatinib (first compound 0.03162 µM), 1.02; in the assay with Tivantinib + Dasatinib (first compound 0.1 µM), 0.988; with Tivantinib + Dasatinib (first compound 0.3162 µM), 0.585; with Crenolanib + Bortezomib (first compound 0.01 µM), 0.814; with Crenolanib + Bortezomib (first compound 0.03162 µM) it was 0.889. Also, the relative viability is 0.779 with Crenolanib + Bortezomib (first compound 0.1 µM); 0.831 with Crenolanib + Bortezomib (first compound 0.3162 µM); 0.749 with Crenolanib + Bortezomib (first compound 1 µM); 1.26 with Crenolanib + Olaparib (first compound 0.01 µM); 1.01 with Crenolanib + Olaparib (first compound 0.1 µM); 1.06 with Crenolanib + Olaparib (first compound 0.3162 µM). Further, the relative viability worked out at 1.06 with Crenolanib + Olaparib (first compound 1 µM); 0.736 with Crenolanib + Pictilisib (first compound 0.01 µM); 0.635 in the assay with Crenolanib + Pictilisib (first compound 0.03162 µM); 0.746 in the assay with Crenolanib + Pictilisib (first compound 0.1 µM); 0.695 in the assay with Crenolanib + Pictilisib (first compound 0.3162 µM); 0.703 with Crenolanib + Pictilisib (first compound 1 µM).
As to PC-14, the relative viability in the assay with Tivantinib + Dasatinib (first compound 0.01 µM) turned out to be 0.29; in the assay with Tivantinib + Dasatinib (first compound 0.03162 µM), 0.27; with Tivantinib + Dasatinib (first compound 0.1 µM), 0.234; with Tivantinib + Dasatinib (first compound 0.3162 µM), 0.0998; with Crenolanib + Bortezomib (first compound 0.01 µM), 0.908; with Crenolanib + Bortezomib (first compound 0.03162 µM), 0.809. For the same cell line, the relative viability with Crenolanib + Bortezomib (first compound 0.1 µM) was found to be 0.785; with Crenolanib + Bortezomib (first compound 0.3162 µM), 0.995; with Crenolanib + Bortezomib (first compound 1 µM), 0.948; with Crenolanib + Olaparib (first compound 0.01 µM), 0.255; with Crenolanib + Olaparib (first compound 0.03162 µM), 0.257; in the assay with Crenolanib + Olaparib (first compound 0.1 µM), 0.299. The relative viability was determined as 0.249 with Crenolanib + Olaparib (first compound 0.3162 µM); 0.257 with Crenolanib + Olaparib (first compound 1 µM); 0.661 with Crenolanib + Pictilisib (first compound 0.01 µM); 0.787 with Crenolanib + Pictilisib (first compound 0.03162 µM); 0.588 with Crenolanib + Pictilisib (first compound 0.1 µM); 0.744 in the assay with Crenolanib + Pictilisib (first compound 0.3162 µM). The relative viability with Crenolanib + Pictilisib (first compound 1 µM) was determined as 0.65.
On to RERF-LC-KJ, for which the relative viability was 0.873 in the assay with Tivantinib + Dasatinib (first compound 0.01 µM); 0.895 in the assay with Tivantinib + Dasatinib (first compound 0.03162 µM); 0.757 in the assay with Tivantinib + Dasatinib (first compound 0.1 µM); 0.585 with Tivantinib + Dasatinib (first compound 0.3162 µM); 1.26 with Crenolanib + Bortezomib (first compound 0.01 µM); 1.15 with Crenolanib + Bortezomib (first compound 0.03162 µM). Moreover, the relative viability stood at 1.11 with Crenolanib + Bortezomib (first compound 0.1 µM); 1.1 in the assay with Crenolanib + Bortezomib (first compound 0.3162 µM); 1.12 with Crenolanib + Bortezomib (first compound 1 µM); 0.864 with Crenolanib + Olaparib (first compound 0.01 µM); 0.942 with Crenolanib + Olaparib (first compound 0.03162 µM); 0.871 in the assay with Crenolanib + Olaparib (first compound 0.1 µM). Besides, the relative viability with Crenolanib + Olaparib (first compound 0.3162 µM) came out at 1.03; in the assay with Crenolanib + Olaparib (first compound 1 µM), 0.93; in the assay with Crenolanib + Pictilisib (first compound 0.01 µM), 0.548; in the assay with Crenolanib + Pictilisib (first compound 0.03162 µM), 0.591; in the assay with Crenolanib + Pictilisib (first compound 0.1 µM) it was 0.538; with Crenolanib + Pictilisib (first compound 0.3162 µM) it was 0.621. The relative viability with Crenolanib + Pictilisib (first compound 1 µM) is 0.687.
SK-LU-1: the relative viability with Tivantinib + Dasatinib (first compound 0.01 µM) is 0.186; in the assay with Tivantinib + Dasatinib (first compound 0.03162 µM), 0.178; in the assay with Tivantinib + Dasatinib (first compound 0.1 µM), 0.173; in the assay with Tivantinib + Dasatinib (first compound 0.3162 µM), 0.169; in the assay with Crenolanib + Bortezomib (first compound 0.01 µM) it was 1.42; with Crenolanib + Bortezomib (first compound 0.03162 µM), 1.11. The relative viability with Crenolanib + Bortezomib (first compound 0.1 µM) was found to be 0.937; with Crenolanib + Bortezomib (first compound 0.3162 µM) it was 1.33; with Crenolanib + Bortezomib (first compound 1 µM), 1; in the assay with Crenolanib + Olaparib (first compound 0.01 µM) it was 0.547; in the assay with Crenolanib + Olaparib (first compound 0.03162 µM), 0.491; with Crenolanib + Olaparib (first compound 0.1 µM), 0.331. Moreover, the relative viability amounted to 0.7 in the assay with Crenolanib + Olaparib (first compound 0.3162 µM); 0.534 in the assay with Crenolanib + Olaparib (first compound 1 µM); 0.609 with Crenolanib + Pictilisib (first compound 0.01 µM); 0.494 with Crenolanib + Pictilisib (first compound 0.03162 µM); 0.432 with Crenolanib + Pictilisib (first compound 0.1 µM); 0.62 in the assay with Crenolanib + Pictilisib (first compound 0.3162 µM). Besides, in the assay with Crenolanib + Pictilisib (first compound 1 µM), the relative viability stood at 0.611.
As for SW 1573, the relative viability worked out at 0.717 in the assay with Tivantinib + Dasatinib (first compound 0.01 µM); 0.481 with Tivantinib + Dasatinib (first compound 0.03162 µM); 0.453 with Tivantinib + Dasatinib (first compound 0.1 µM); 0.548 with Tivantinib + Dasatinib (first compound 0.3162 µM); 1.04 with Crenolanib + Bortezomib (first compound 0.01 µM); 1.15 with Crenolanib + Bortezomib (first compound 0.03162 µM). Also, the relative viability in the assay with Crenolanib + Bortezomib (first compound 0.1 µM) was 0.996; in the assay with Crenolanib + Bortezomib (first compound 0.3162 µM) it was 1.29; with Crenolanib + Bortezomib (first compound 1 µM), 1.15; with Crenolanib + Olaparib (first compound 0.01 µM), 0.589; in the assay with Crenolanib + Olaparib (first compound 0.03162 µM) it was 0.416; in the assay with Crenolanib + Olaparib (first compound 0.1 µM), 0.44. The relative viability with Crenolanib + Olaparib (first compound 0.3162 µM) is 0.651; in the assay with Crenolanib + Olaparib (first compound 1 µM) it was 0.484; with Crenolanib + Pictilisib (first compound 0.01 µM), 0.368; in the assay with Crenolanib + Pictilisib (first compound 0.03162 µM), 0.521; with Crenolanib + Pictilisib (first compound 0.1 µM) it was 0.451; with Crenolanib + Pictilisib (first compound 0.3162 µM) it was 0.656. In addition, the relative viability with Crenolanib + Pictilisib (first compound 1 µM) was 0.598.
Turning to UMC-11, the relative viability was 0.43 with Tivantinib + Dasatinib (first compound 0.01 µM); 0.491 in the assay with Tivantinib + Dasatinib (first compound 0.03162 µM); 0.421 in the assay with Tivantinib + Dasatinib (first compound 0.1 µM); 0.614 with Tivantinib + Dasatinib (first compound 0.3162 µM); 0.811 with Crenolanib + Bortezomib (first compound 0.01 µM); 0.753 in the assay with Crenolanib + Bortezomib (first compound 0.03162 µM). Besides, the relative viability is 0.703 in the assay with Crenolanib + Bortezomib (first compound 0.1 µM); 0.752 with Crenolanib + Bortezomib (first compound 0.3162 µM); 0.757 in the assay with Crenolanib + Bortezomib (first compound 1 µM); 0.394 with Crenolanib + Olaparib (first compound 0.01 µM); 0.35 with Crenolanib + Olaparib (first compound 0.03162 µM); 0.379 with Crenolanib + Olaparib (first compound 0.1 µM). The relative viability with Crenolanib + Olaparib (first compound 0.3162 µM) was 0.556; with Crenolanib + Olaparib (first compound 1 µM), 0.341; with Crenolanib + Pictilisib (first compound 0.01 µM) it was 0.76; in the assay with Crenolanib + Pictilisib (first compound 0.03162 µM), 0.834; in the assay with Crenolanib + Pictilisib (first compound 0.1 µM), 0.787; in the assay with Crenolanib + Pictilisib (first compound 0.3162 µM), 0.848. Besides, the relative viability with Crenolanib + Pictilisib (first compound 1 µM) is 0.733.
